Data reported in PubChem BioAssay (NCI).
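Results reflect a 48-hour exposure of cells in 96-well plates to compound at five concentrations. GI50 is the concentration that inhibits growth by half. At the TGI there is no net growth.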

How the values were obtained:
Assay in all cases: NCI-60 cell line screen, 48 h
SK-MEL-28 melanoma = test system: SK-MEL-28 melanoma
K-562 leukemia = test system: K-562 leukemia
ACHN renal = test system: ACHN renal
HCC-2998 colon = test system: HCC-2998 colon
DU-145 prostate = test system: DU-145 prostate
MCF7 breast = test system: MCF7 breast
OVCAR-3 ovarian = test system: OVCAR-3 ovarian
SNB-75 CNS = test system: SNB-75 CNS
NCI-H23 lung = test system: NCI-H23 lung
UO-31 renal = test system: UO-31 renal
CCRF-CEM leukemia = test system: CCRF-CEM leukemia
NCI/ADR-RES ovarian = test system: NCI/ADR-RES ovarian
RPMI-8226 leukemia = test system: RPMI-8226 leukemia
SF-539 CNS = test system: SF-539 CNS
OVCAR-8 ovarian = test system: OVCAR-8 ovarian
NCI-H460 lung = test system: NCI-H460 lung
RXF 393 renal = test system: RXF 393 renal
SR leukemia = test system: SR leukemia
HS 578T breast = test system: HS 578T breast
HOP-62 NSCLC = test system: HOP-62 NSCLC
HCT-15 colon = test system: HCT-15 colon
HT29 colon = test system: HT29 colon
COLO 205 colon = test system: COLO 205 colon
MOLT-4 leukemia = test system: MOLT-4 leukemia
UACC-257 melanoma = test system: UACC-257 melanoma
SK-MEL-5 melanoma = test system: SK-MEL-5 melanoma
HL-60(TB) leukemia = test system: HL-60(TB) leukemia
UACC-62 melanoma = test system: UACC-62 melanoma
HOP-92 NSCLC = test system: HOP-92 NSCLC

Work on `O=C(/C=C/c1ccccc1Cl)Nc1ncc(Cc2cc(Cl)ccc2Cl)s1` yielded a GI50 (SK-MEL-28 melanoma) of 9.29 µM, a TGI (SK-MEL-28 melanoma) of over 100 µM and a GI50 (K-562 leukemia) of 0.406 µM. For the same molecule, the TGI (K-562 leukemia) was over 100 µM, the GI50 (ACHN renal) was 8.28 µM and the TGI (ACHN renal) was over 100 µM. The GI50 (HCC-2998 colon) was 2.71 µM, the TGI (HCC-2998 colon) was over 100 µM and the GI50 (DU-145 prostate) was 2.04 µM. It also gave a TGI (DU-145 prostate) of over 100 µM, a GI50 (MCF7 breast) of 0.674 µM and a TGI (MCF7 breast) of over 100 µM. The GI50 (OVCAR-3 ovarian) was 3.44 µM, the TGI (OVCAR-3 ovarian) was over 100 µM and the GI50 (SNB-75 CNS) was 0.576 µM. It also gave a TGI (SNB-75 CNS) of 9.82 µM, a GI50 (NCI-H23 lung) of 0.686 µM and a TGI (NCI-H23 lung) of over 100 µM. It also gave a GI50 (UO-31 renal) of 6.52 µM, a TGI (UO-31 renal) of over 100 µM and a GI50 (CCRF-CEM leukemia) of 0.909 µM. For the same molecule, the TGI (CCRF-CEM leukemia) was over 100 µM, the GI50 (NCI/ADR-RES ovarian) was 2.99 µM and the TGI (NCI/ADR-RES ovarian) was over 100 µM. It also gave a GI50 (RPMI-8226 leukemia) of 1.36 µM, a TGI (RPMI-8226 leukemia) of over 63.8 µM and a GI50 (SF-539 CNS) of 2.79 µM. The TGI (SF-539 CNS) was 13.6 µM, the GI50 (OVCAR-8 ovarian) was 4.03 µM and the TGI (OVCAR-8 ovarian) was over 100 µM. The GI50 (NCI-H460 lung) was 3.6 µM, the TGI (NCI-H460 lung) was over 100 µM and the GI50 (RXF 393 renal) was 0.916 µM. It also gave a TGI (RXF 393 renal) of 3.46 µM, a GI50 (SR leukemia) of 0.534 µM and a TGI (SR leukemia) of over 100 µM. For the same molecule, the GI50 (HS 578T breast) was 1.14 µM, the GI50 (HOP-62 NSCLC) was 6.14 µM and the TGI (HOP-62 NSCLC) was over 100 µM. It also gave a GI50 (HCT-15 colon) of 0.634 µM, a TGI (HCT-15 colon) of over 100 µM and a GI50 (HT29 colon) of 2.46 µM. For the same molecule, the TGI (HT29 colon) was over 100 µM, the GI50 (COLO 205 colon) was 1.21 µM and the TGI (COLO 205 colon) was over 31.7 µM. It also gave a GI50 (MOLT-4 leukemia) of 1.21 µM, a TGI (MOLT-4 leukemia) of over 100 µM and a GI50 (UACC-257 melanoma) of 9.11 µM. The TGI (UACC-257 melanoma) was over 100 µM, the GI50 (SK-MEL-5 melanoma) was 2.8 µM and the TGI (SK-MEL-5 melanoma) was over 100 µM. It also gave a GI50 (HL-60(TB) leukemia) of 1.24 µM, a TGI (HL-60(TB) leukemia) of 5.7 µM and a GI50 (UACC-62 melanoma) of 3.27 µM. It also gave a TGI (UACC-62 melanoma) of over 100 µM and a GI50 (HOP-92 NSCLC) of 1.3 µM.
